Data from patent US7947706B2, “Substituted pyrrolopyridines, compositions containing them, manufacturing process therefor and use thereof” (Sanofi-Aventis Deutschland GmbH, priority 2005, dated 2011).
pIC50: −log10 of the molar value.

Tests used:
FAK = target: T1, FAK (Homo sapiens, UniProt Q05397); assay: FAK autophosphorylation inhibition, time-resolved fluorescence test (HTRF); type: biochemical; details: autophosphorylation of His-tagged human FAK, 15 μM ATP, 1 hour at 37° C.
T1 construct: The whole cDNA of human FAK; made in house; host or cells: baculovirus expression (pFastBac HTc)
Method: The inhibitory activity of the compounds on FAK is determined by measuring the inhibition of autophosphorylation of the enzyme using a time-resolved fluorescence test (HTRF).
The whole cDNA of human FAK, the N-terminal end of which has been labelled with histidine, was cloned in a pFastBac HTc baculovirus expression vector. The protein was expressed and purified to about 70% homogeneity.
The kinase activity is determined by incubating the enzyme (6.6 μg/ml) with different concentrations of test compound in a 50 mM Hepes pH=7.2, 10 mM MgCl2, 100 μm Na3VO4, 15 μM ATP buffer for 1 hour at 37° C. The enzymatic reaction is stopped by adding Hepes pH=7.0 buffer containing 0.4 mM KF, 133 mM EDTA, 0.1% BSA and the labelling is performed, for 1 to 2 hours at room temperature, by adding to this buffer an anti-Histidine antibody labelled with XL665 and a tyrosine phosphospecific monoclonal antibody conjugated to europium cryptate (Eu—K). The characteristics of the two fluorophores are available in G. Mathis et al., Anticancer Research, 1997, 17, pages 3011-3014. The energy transfer from the excited europium cryptate to the acceptor XL665 is proportional to the degree of autophosphorylation of FAK. The long-lasting signal specific for XL-665 is measured in a Packard Discovery plate counter. All the tests are performed in duplicate and the average of the two tests is calculated. The inhibition of the autophosphorylation activity of FAK with compounds of the invention is expressed as a percentage of inhibition relative to a control whose activity is measured in the absence of test compound. To calculate the percentage inhibition, the ratio [signal at 665 nm/signal at 620 nm] is considered.

TIE2 = target: T2, TIE2 (Homo sapiens, UniProt Q02763); assay: Tie2 phosphorylation of PLC test (GST-Tie2, FlashPlate); type: biochemical; details: GST-Tie2 intracellular domain 776-1124, GST-PLC substrate, 33P-ATP, one hour at 37° C.; read-out: IC 50 TIE2
T2 construct: amino acids of the intracellular domain 776-1124; made in house; host or cells: baculovirus expression (pFastBacGT)
Method: The coding sequence of human Tie2 corresponding to the amino acids of the intracellular domain 776-1124 was generated by PCR using the cDNA isolated from a human placenta as a model. This sequence was introduced into a pFastBacGT baculovirus expression vector in the form of a GST fusion protein.
The inhibitory effect of the molecules is determined in a test of phosphorylation of PLC with Tie2 in the presence of GST-Tie2 purified to about 80% homogeneity. The substrate is composed of the SH2-SH3 fragments of PLC expressed in the form of a GST fusion protein.
The kinase activity of Tie2 is measured in a MOPS 20 mM pH 7.2 buffer, containing 10 mM MgCl2, 10 mM MnCl2, 1 mM DTT, 10 mM of glycerophosphate. In a 96-well FlashPlate plate maintained on ice, a reaction mixture is deposited, composed of 70 μL of kinase buffer containing 100 ng of enzyme GST-Tie2 per well. Next, 10 μL of the test molecule diluted in DMSO to a maximum concentration of 10% are added. For a given concentration, each measurement is performed four times. The reaction is initiated by adding 20 μl of solution containing 2 μg of GST-PLC, 2 μm of cold ATP and 1 μCi of ^33P[ATP]. After incubation for one hour at 37° C., the reaction is stopped by adding 1 volume (100 μl) of 200 mM EDTA. After removal of the incubation buffer, the wells are washed three times with 300 μL of PBS. The radioactivity is measured on a MicroBeta 1450 Wallac.
The inhibition of the Tie2 activity is calculated and expressed as a percentage of inhibition relative to the control activity determined in the absence of compound.

T2 sequence (Q02763 776-1124): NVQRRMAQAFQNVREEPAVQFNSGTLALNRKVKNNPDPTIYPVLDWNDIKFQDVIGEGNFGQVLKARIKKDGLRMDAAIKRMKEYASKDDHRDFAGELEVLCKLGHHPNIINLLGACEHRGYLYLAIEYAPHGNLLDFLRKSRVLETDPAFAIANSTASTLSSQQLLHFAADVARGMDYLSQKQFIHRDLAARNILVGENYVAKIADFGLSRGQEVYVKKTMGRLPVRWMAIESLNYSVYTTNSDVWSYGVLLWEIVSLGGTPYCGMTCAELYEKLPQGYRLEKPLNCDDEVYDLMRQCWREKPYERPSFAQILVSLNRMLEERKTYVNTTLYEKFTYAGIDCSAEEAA
T1 sequence (Q05397 whole entry): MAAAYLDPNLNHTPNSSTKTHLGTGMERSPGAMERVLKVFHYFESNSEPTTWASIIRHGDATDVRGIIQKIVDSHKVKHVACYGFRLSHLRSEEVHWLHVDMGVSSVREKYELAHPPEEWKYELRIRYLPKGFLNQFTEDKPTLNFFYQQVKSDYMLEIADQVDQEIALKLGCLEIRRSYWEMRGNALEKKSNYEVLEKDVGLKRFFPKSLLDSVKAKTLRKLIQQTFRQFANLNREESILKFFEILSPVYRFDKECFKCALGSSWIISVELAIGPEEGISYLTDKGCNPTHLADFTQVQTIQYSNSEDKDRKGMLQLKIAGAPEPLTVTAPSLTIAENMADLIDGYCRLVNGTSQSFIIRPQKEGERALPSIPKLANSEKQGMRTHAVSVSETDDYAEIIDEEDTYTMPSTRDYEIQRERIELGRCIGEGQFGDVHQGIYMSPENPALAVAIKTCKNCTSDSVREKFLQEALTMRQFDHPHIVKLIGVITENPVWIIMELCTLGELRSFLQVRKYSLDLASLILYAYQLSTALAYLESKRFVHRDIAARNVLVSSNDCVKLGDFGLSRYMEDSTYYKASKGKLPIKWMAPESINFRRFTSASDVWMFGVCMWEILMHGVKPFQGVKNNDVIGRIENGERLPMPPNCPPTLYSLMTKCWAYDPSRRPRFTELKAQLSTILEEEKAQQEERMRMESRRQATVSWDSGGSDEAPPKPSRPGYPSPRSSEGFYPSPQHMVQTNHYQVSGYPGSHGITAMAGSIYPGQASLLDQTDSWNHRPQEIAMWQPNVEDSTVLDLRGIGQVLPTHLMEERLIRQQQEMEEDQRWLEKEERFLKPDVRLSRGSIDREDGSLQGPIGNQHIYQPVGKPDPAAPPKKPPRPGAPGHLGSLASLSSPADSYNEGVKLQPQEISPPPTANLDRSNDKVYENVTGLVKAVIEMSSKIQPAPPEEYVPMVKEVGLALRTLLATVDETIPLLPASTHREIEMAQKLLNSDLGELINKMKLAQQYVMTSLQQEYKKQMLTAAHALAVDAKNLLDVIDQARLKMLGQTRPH

| pIC50 (FAK) | pIC50 (TIE2) | Structure (SMILES) |
| --- | --- | --- |
| 6.79 | 8.40 | NC(=O)c1[nH]c2cnccc2c1-c1ccc(NC(=O)Nc2cc(C(F)(F)F)ccc2F)cc1 [Example 1, 3-{4-[3-(2-Fluoro-5-trifluoromethylphenyl)ureido]phenyl}-1H-pyrrolo[2,3-c]pyridine-2-carboxamide] |
| 6.52 | 7.68 | COc1ccc(C)cc1NC(=O)Nc1ccc(-c2c(C(N)=O)[nH]c3cnccc23)cc1 [Example 2, 3-{4-[3-(2-Methoxy-5-methylphenyl)ureido]phenyl}-1H-pyrrolo[2,3-c]pyridine-2-carboxamide] |
| 6.60 | 7.33 | Cc1ccc(F)c(NC(=O)Nc2ccc(-c3c(C(N)=O)[nH]c4cnccc34)cc2)c1.O=C(O)C(F)(F)F [Example 5, 3-{4-[3-(2-Fluoro-5-methylphenyl)ureido]phenyl}-1H-pyrrolo[2,3-c]pyridine-2-carboxamide trifluoroacetate] |
| 6.74 | 8.05 | NC(=O)c1[nH]c2ncccc2c1-c1ccc(NC(=O)Nc2cc(C(F)(F)F)ccc2F)cc1 [Example 7, 3-{4-[3-(2-Fluoro-5-trifluoromethylphenyl)ureido]phenyl}-1H-pyrrolo[2,3-b]pyridine-2-carboxamide] |
